The test system of data set [1] is rat mesangial cells. Description: Proline incorporation assay: reduction of TGF-beta 1 stimulated proline incorporation. Format: cell-based. Particulars: Mesangial cell, 44 h, TGF-beta 1 5 ng/mL, read-out: Percentage Reduction of TGF-Beta 1 Stimulated Proline Incorporation; for inhibition at 10 µM: 10 μM compound; for inhibition at 30 µM: 30 μM compound; for inhibition at 100 µM: 100 μM compound. How it is done: (§1) A well-characterised cloned rat mesangial cell line (Kakizaki Y, Kraft N, Atkins R C: Differential control of mesangial cell proliferation by interferon-gamma. Clin Exp Immunol 85:157-163, 1991) was cultured in DMEM (5 mM glucose) with 5% FBS, 100U/mL penicillin, and 100 ug/mL streptomycin in humidified 5% CO2 atmosphere at 37 C. Cells were used up to passage 40.
Proline Incorporation Assay
(§2) Cells were plated into 24-well culture dishes in DMEM/5% FBS and allowed to adhere overnight. The subconfluent cells were then starved overnight in DMEM/0.1% FBS and 150 uM L-ascorbic acid, prior to pre-treatment with or without FibroTech compounds for 4 hours at 10, 30 or 100 uM in 0.1% DMSO, final concentration. TGF-beta 1 at 5 ng/mL (Peprotech) and tritiated proline (Perkin-Elmer, (2,3,4,5-^3H)-proline) at 1 uCi/mL were added and the incubation continued for a further 44 hours. Treatments were performed in triplicate.
After the incubation, cells were placed on ice and washed three times with ice cold PBS. They were then incubated on ice with 10% TCA for 30 minutes, followed by a final wash in cold 10% TCA. The cells were solubilized in 0.75 mL of 1M NaOH at 37 C for 45 minutes, or overnight at 4 C. Aliquots of the solubilized cells were neutralized in an equal amount of 1M HCl and counted in scintillant in a beta counter. Aliquots of neutralized solubilized cells were assayed for protein using the BioRad Bradford Protein Assay. Proline incorporation was normalized for protein content (cpm ^3H-proline incorporated per ug protein).
In order to compare the results of experiments performed on different days, the percentage inhibition of proline incorporation was calculated for each treatment by setting the TGF treatment at 0% inhibition and the control (incubation with media alone) at 100% inhibition.
Percentage Reduction of TGF-Beta 1 Stimulated Proline Incorporation: […]

Data set [2] relates to rat mesangial cells. Nature of the data set: Toxicity rank and cell condition observed in the proline incorporation assay. In kind it is cell-based. On the set-up: key to Tox. Rank (4 = non-toxic): (4 = non-toxic). The following applies: for Cell condition observed (sick, dead, some death, cells elongated): 100 μM; for Cell condition observed (sick, dead): 30 μM. As for the experimental part: as §1, §2

A short description of data set [3]: Compound precipitation observed during the proline incorporation assay. Format: physicochemical. On the set-up: key: ppt indicates compound precipitated during assay. How it is done: as §2

`COc1ccc(/C=C/c2nc3c(C(=O)O)cccc3o2)cc1OC` [FT132, (E)-2-(3,4-Dimethoxystyryl)benzo[d]oxazole-4-carboxylic acid]: in the data set on rat mesangial cells [1], the inhibition at 10 µM was about 2%, the inhibition at 30 µM is about 75% and the inhibition at 100 µM is about 75%. Besides, in the data set with rat mesangial cells [2], the “Cell condition observed (sick, dead, some death, cells elongated)” value is on record as “(some death)”. The “Tox. Rank (4 = non-toxic)” value in the data set with rat mesangial cells [2] (@100 uM) is 3@100 uM. Moreover, the “Compound precipitated during assay” value in data set [3] (30 μM in 0.1% DMSO) is recorded as “ppt”. The “Compound precipitated during assay” value in data set [3] (100 μM in 0.1% DMSO) is “ppt”.

`COc1ccc(/C=C/C2=NS(=O)(=O)c3ccccc3N2)cc1OC` [FT98, (E)-3-[2-(3,4-Dimethoxyphenyl)ethenyl]-4H-1,2,4-benzothiadiazine-1,1-dioxide] came in with a melting point of 276 to 279 °C. In the data set on rat mesangial cells [1], the inhibition at 10 µM stood at 30%, the inhibition at 30 µM was 70% and the inhibition at 100 µM is 70%. In the data set with rat mesangial cells [2] (no concentration stated), the “Tox. Rank (4 = non-toxic)” value is 4.

As for `COc1ccc(/C=C/c2nc3ccccc3c(=O)o2)cc1OC(C)=O` [FT110, (E)-2-(3-Acetoxy-4-methoxystyryl)-4H-benzo[d][1,3]oxazin-4-one], in the data set with rat mesangial cells [1], the inhibition at 10 µM came to 0%, the inhibition at 30 µM stood at 0% and the inhibition at 100 µM was 0%. The “Cell condition observed (sick, dead, some death, cells elongated)” value with rat mesangial cells [2] was “(cells elongated)”. The “Tox. Rank (4 = non-toxic)” value in the data set with rat mesangial cells [2] (@100 uM) was 3@100 uM. Also, the “Compound precipitated during assay” value in data set [3] (100 μM in 0.1% DMSO) is listed as “ppt”.

For the molecule `COc1ccc(/C=C/C(=O)n2c(=O)n(C)c3ccccc32)cc1OC` [FT123, (E)-1-(3-(3,4-Dimethoxyphenyl)acryloyl)-3-methyl-1H-benzo[d]imidazol-2(3H)-one], in the data set on rat mesangial cells [1], the inhibition at 10 µM was 0%, the inhibition at 30 µM turned out to be 0% and the inhibition at 100 µM was 0%. In addition, in the data set with rat mesangial cells [2], the “Cell condition observed (sick, dead)” value is “sick” and the “Cell condition observed (sick, dead, some death, cells elongated)” value was “dead”. Besides, the “Tox. Rank (4 = non-toxic)” value in the data set with rat mesangial cells [2] (no concentration stated) lay in the range of 1 to 2. In data set [3] (30 μM in 0.1% DMSO), the “Compound precipitated during assay” value is “ppt”. Moreover, the “Compound precipitated during assay” value in data set [3] (100 μM in 0.1% DMSO) is recorded as “ppt”.

As for `COc1ccc(/C=C/C(=O)n2c(=O)oc3ccccc32)cc1OC` [FT124, (E)-3-(3-(3,4-Dimethoxyphenyl)acryloyl)benzo[d]oxazol-2(3H)-one], in the data set on rat mesangial cells [1], the inhibition at 10 µM came out at 0%, the inhibition at 30 µM turned out to be 0% and the inhibition at 100 µM worked out at 0%. Also, in the data set on rat mesangial cells [2], the “Cell condition observed (sick, dead)” value is “sick” and the “Cell condition observed (sick, dead, some death, cells elongated)” value is “sick”. Besides, the “Tox. Rank (4 = non-toxic)” value in the data set with rat mesangial cells [2] (no concentration stated) came to 2. Moreover, in data set [3] (10 μM in 0.1% DMSO), the “Compound precipitated during assay” value was “ppt”. In data set [3] (30 μM in 0.1% DMSO), the “Compound precipitated during assay” value is recorded as “ppt”. In addition, in data set [3] (100 μM in 0.1% DMSO), the “Compound precipitated during assay” value is “ppt”.

For `COc1ccc(/C=C/C(=O)N2CCc3ccccc32)cc1OC` [FT113, (E)-3-(3,4-dimethoxyphenyl)-1-(indolin-1-yl)prop-2-en-1-one], the melting point lay within 118 to 120 °C. Further, in the data set with rat mesangial cells [1], the inhibition at 10 µM stood at 20%, the inhibition at 30 µM came to 67% and the inhibition at 100 µM worked out at 44%. Also, the “Tox. Rank (4 = non-toxic)” value in the data set on rat mesangial cells [2] (no concentration stated) is given as 4.

As to `O=c1oc(/C=C/c2ccc(OC(F)F)c(OC(F)F)c2)nc2ccccc12` [FT108, (E)-2-(3,4-Bis(difluoromethoxy)styryl)-4H-benzo[d][1,3]oxazin-4-one], the melting point lay in the range of 113 to 115 °C. For the same molecule, in the data set with rat mesangial cells [1], the inhibition at 10 µM was 75%, the inhibition at 30 µM came out at 95% and the inhibition at 100 µM was over 100%. Moreover, in the data set with rat mesangial cells [2] (no concentration stated), the “Tox. Rank (4 = non-toxic)” value is listed as 4.

As to `COc1cc2c(cc1OC)CCC(C(=O)Nc1ccccc1C(=O)O)=C2` [FT129, 2-(6,7-Dimethoxy-1,2-dihydronaphthalene-3-carboxamido)benzoic acid], in the data set with rat mesangial cells [1], the inhibition at 10 µM is about 10% and the inhibition at 30 µM is about 75%. In the data set with rat mesangial cells [2], the “Cell condition observed (sick, dead, some death, cells elongated)” value is listed as “dead”. In addition, the “Tox. Rank (4 = non-toxic)” value in the data set with rat mesangial cells [2] (@30 uM) is given as 2@30 uM. Also, in the data set on rat mesangial cells [2] (@100 uM), the “Tox. Rank (4 = non-toxic)” value is 1@100 uM.
